Data reported in patent publication US8680052B1, “Methods of treating, reducing the incidence of, and/or preventing ischemic events” (The Medicines Company, priority 2013, dated 2014).
Like-named read-outs stand apart in the source and are kept apart here.

System: patients undergoing percutaneous coronary intervention (PCI)
Conditions: for OR (95% CI): Mortality/Q-wave MI/IDR / OR (95% CI): Mortality/Q-wave MI/Stent thrombosis / OR (95% CI): Q-wave MI / OR (95% CI): Stent thrombosis / OR (95% CI): All-cause mortality / OR (95% CI): IDR / OR (95% CI): MI / OR (95% CI): Mortality/MI/IDR / OR (95% CI): Stroke / OR (95% CI): Mortality/MI/IDR (primary endpoint): cangrelor vs comparator arm; for Mortality/Q-wave MI/IDR / Mortality/Q-wave MI/Stent thrombosis: exploratory; for Angiographic complications (site reported): Abrupt vessel closure / Angiographic complications (site reported): Acute stent thrombosis / Angiographic complications (site reported): Need for urgent CABG / Angiographic complications (site reported): New thrombus or suspected thrombus / Angiographic complications (site reported): Threatened abrupt closure / Angiographic complications (site reported): Unsuccessful procedure: index PCI
[1] = 48-hour, MITT, listed as cangrelor

Experimental: The diagnosis of non-ST-segment elevation myocardial infarction required troponin I or T greater than the upper limit of normal within 24 hours of randomization (or if troponin results were unavailable at that time, creatine kinase-myocardial band isoenzyme [CK-MB] greater than the upper limit of normal). The diagnosis of unstable angina required ischemic chest discomfort occurring at rest and lasting ≧10 minutes within the 24 hours prior to randomization and dynamic electrocardiographic changes; age ≧65 years and/or diabetes mellitus were also required.
The primary efficacy endpoint was the composite of mortality, myocardial infarction, or ischemia-driven revascularization at 48 hours. The primary analysis was performed on a modified intent-to-treat population. Confirmatory analyses were performed on an intent-to-treat population. Secondary endpoints included the individual rates of mortality, myocardial infarction, new Q-wave myocardial infarction, ischemia-driven revascularization, abrupt vessel closure, or stroke at 48 hours. Mortality at 30 days and 1 year was also recorded. The clinical events committee adjudicated myocardial infarction, Q-wave myocardial infarction, ischemia-driven revascularization, stent thromboses, and stroke (ischemic or hemorrhagic). The definition of stent thrombosis was similar to the Academic Research Consortium definition of definite stent thrombosis. After review of the prespecified analyses, two exploratory endpoints less reliant on periprocedural biomarker ascertainment were examined. The exploratory endpoints, which were composed of prespecified and adjudicated endpoints, were the composite of mortality, Q-wave myocardial infarction, or ischemia-driven revascularization and the composite of mortality, Q-wave myocardial infarction, or stent thrombosis. Bleeding and adverse events through 48 hours were compared.
All efficacy analyses were performed on the modified intent-to-treat population, defined as all randomized patients who received at least one dose of study drug and underwent the index PCI. All safety-related analyses were performed on the safety population, which included all patients who received at least one dose of assigned study drug. Patients in the safety analyses were assigned to a treatment arm based on treatment actually received, not as randomized. Intent-to-treat analyses are also presented for full disclosure of results. All statistical tests were two-tailed using a level of significance of 0.05. […] Logistic regression was also used to analyze the majority of the remaining secondary endpoints.

SMILES: CSCCNc1nc(SCCC(F)(F)F)nc2c1ncn2[C@@H]1O[C@H](COP(=O)(O)OP(=O)(O)C(Cl)(Cl)P(=O)(O)O)[C@@H](O)[C@H]1O [Cangrelor, cangrelor]
- OR (95% CI): Mortality/Q-wave MI/IDR (30-day, Safety population): 0.732 (0.531, 1.010)
- OR (95% CI): Mortality/Q-wave MI/Stent thrombosis (30-day, Safety population): 0.651 (0.452, 0.938)
- OR (95% CI): Q-wave MI (30-day, Safety population): 0.528 (0.224, 1.248)
- OR (95% CI): Stent thrombosis (30-day, Safety population): 0.529 (0.282, 0.993)
- Mortality/Q-wave MI/IDR (30-day, Safety population): 67 (2.5) no. (%)
- Mortality/Q-wave MI/Stent thrombosis (30-day, Safety population): 49 (1.8) no. (%)
- All-cause mortality (48-hour, ITT): 8 (0.3) no. (%)
- IDR (48-hour, ITT): 19 (0.7) no. (%)
- MI (48-hour, ITT): 177 (6.6) no. (%)
- Mortality/MI/IDR (48-hour, ITT): 187 (6.9) no. (%)
- Q-wave MI (48-hour, ITT): 4 (0.1) no. (%)
- Stent thrombosis (48-hour, ITT): 5 (0.2) no. (%)
- Stroke (48-hour, ITT): 7 (0.3) no. (%)
- OR (95% CI): All-cause mortality (48-hour, ITT): 0.415 (0.181, 0.950)
- OR (95% CI): IDR (48-hour, ITT): 0.721 (0.398, 1.307)
- OR (95% CI): MI (48-hour, ITT): 0.906 (0.734, 1.120)
- OR (95% CI): Mortality/MI/IDR (48-hour, ITT): 0.859 (0.701, 1.054)
- OR (95% CI): Mortality/Q-wave MI/IDR (48-hour, ITT): 0.558 (0.341, 0.915)
- OR (95% CI): Mortality/Q-wave MI/Stent thrombosis (48-hour, ITT): 0.409 (0.224, 0.749)
- OR (95% CI): Q-wave MI (48-hour, ITT): 0.439 (0.135, 1.428)
- OR (95% CI): Stent thrombosis (48-hour, ITT): 0.308 (0.113, 0.842)
- OR (95% CI): Stroke (48-hour, ITT): 1.155 (0.388, 3.442)
- Mortality/Q-wave MI/IDR (48-hour, ITT): 25 (0.9) no. (%)
- Mortality/Q-wave MI/Stent thrombosis (48-hour, ITT): 15 (0.6) no. (%)
- All-cause mortality (48-hour, MITT): 6 (0.2) no. (%)
- IDR (48-hour, MITT): 19 (0.7) no. (%)
- MI (48-hour, MITT): 177 (6.7) no. (%)
- Mortality/MI/IDR (primary endpoint) (48-hour, MITT): 185 (7.0) no. (%)
- Q-wave MI (48-hour, MITT): 4 (0.2) no. (%)
- Stent thrombosis (48-hour, MITT): 5 (0.2) no. (%)
- Stroke (48-hour, MITT): 7 (0.3) no. (%)
- OR (95% CI): All-cause mortality (48-hour, MITT): 0.330 (0.131, 0.833)
- OR (95% CI): IDR (48-hour, MITT): 0.786 (0.430, 1.439)
- OR (95% CI): MI (48-hour, MITT): 0.917 (0.742, 1.133)
- OR (95% CI): Mortality/MI/IDR (primary endpoint) (48-hour, MITT): 0.867 (0.706, 1.065)
- OR (95% CI): Mortality/Q-wave MI/IDR (48-hour, MITT): 0.554 (0.332, 0.926)
- OR (95% CI): Mortality/Q-wave MI/Stent thrombosis (48-hour, MITT): 0.377 (0.199, 0.717)
- OR (95% CI): Q-wave MI (48-hour, MITT): 0.497 (0.149, 1.652)
- OR (95% CI): Stent thrombosis (48-hour, MITT): 0.310 (0.113, 0.847)
- OR (95% CI): Stroke (48-hour, MITT): 1.394 (0.442, 4.398)
- OR (95% CI): All-cause mortality [1]: 0.33
- OR (95% CI): Mortality/MI/IDR (primary endpoint) [1]: 0.87
- OR (95% CI): Stent thrombosis [1]: 0.31
- Mortality/Q-wave MI/IDR (48-hour, MITT): 23 (0.9) no. (%)
- Mortality/Q-wave MI/Stent thrombosis (48-hour, MITT): 13 (0.5) no. (%)
- OR (95% CI): All-cause mortality (48-hour, Safety population): 0.385 (0.161, 0.924)
- OR (95% CI): IDR (48-hour, Safety population): 0.754 (0.414, 1.373)
- OR (95% CI): MI (48-hour, Safety population): 0.901 (0.729, 1.113)
- OR (95% CI): Mortality/MI/IDR (48-hour, Safety population): 0.858 (0.699, 1.053)
- OR (95% CI): Mortality/Q-wave MI/IDR (48-hour, Safety population): 0.564 (0.341, 0.935)
- OR (95% CI): Mortality/Q-wave MI/Stent thrombosis (48-hour, Safety population): 0.395 (0.212, 0.735)
- OR (95% CI): Q-wave MI (48-hour, Safety population): 0.441 (0.136, 1.435)
- OR (95% CI): Stent thrombosis (48-hour, Safety population): 0.310 (0.113, 0.846)
- OR (95% CI): Stroke (48-hour, Safety population): 1.394 (0.442, 4.396)
- Mortality/Q-wave MI/IDR (48-hour, Safety population): 24 (0.9) no. (%)
- Mortality/Q-wave MI/Stent thrombosis (48-hour, Safety population): 14 (0.5) no. (%)
- All-cause mortality (48-hour, safety population): 7 (0.3) no. (%)
- IDR (48-hour, safety population): 19 (0.7) no. (%)
- MI (48-hour, safety population): 176 (6.6) no. (%)
- Mortality/MI/IDR (48-hour, safety population): 185 (7.0) no. (%)
- Q-wave MI (48-hour, safety population): 4 (0.2) no. (%)
- Stent thrombosis (48-hour, safety population): 5 (0.2) no. (%)
- Stroke (48-hour, safety population): 7 (0.3) no. (%)
- Rates of stent thrombosis (48 hours): 0.2%
- rate of mortality at 48 hours (48 hours): 0.2%
- primary endpoint (mortality, myocardial infarction, or ischemia-driven revascularization), patients with event (48 hours, MITT): 7.0%
- Angiographic complications (site reported): Abrupt vessel closure (ITT): 13 (0.5)
- Angiographic complications (site reported): Acute stent thrombosis (ITT): 1 (0.0)
- Angiographic complications (site reported): Need for urgent CABG (ITT): 5 (0.2)
- Angiographic complications (site reported): New thrombus or suspected thrombus (ITT): 14 (0.5)
- Angiographic complications (site reported): Threatened abrupt closure (ITT): 10 (0.4)
- Angiographic complications (site reported): Unsuccessful procedure (ITT): 84 (3.1)
- Angiographic complications (site reported): Abrupt vessel closure (MITT): 13 (0.5)
- Angiographic complications (site reported): Acute stent thrombosis (MITT): 1 (0.0)
- Angiographic complications (site reported): Need for urgent CABG (MITT): 5 (0.2)
- Angiographic complications (site reported): New thrombus or suspected thrombus (MITT): 14 (0.5)
- Angiographic complications (site reported): Threatened abrupt closure (MITT): 10 (0.4)
- Angiographic complications (site reported): Unsuccessful procedure (MITT): 81 (3.1)
- Angiographic complications (site reported): Abrupt vessel closure (Safety population): 13 (0.5)
- Angiographic complications (site reported): Acute stent thrombosis (Safety population): 1 (0.0)
- Angiographic complications (site reported): Need for urgent CABG (Safety population): 5 (0.2)
- Angiographic complications (site reported): New thrombus or suspected thrombus (Safety population): 14 (0.5)
- Angiographic complications (site reported): Threatened abrupt closure (Safety population): 10 (0.4)
- Angiographic complications (site reported): Unsuccessful procedure (Safety population): 81 (3.1)
- primary efficacy endpoint (subgroup of 1659 patients without baseline troponin elevation): 4.6%
- OR, primary efficacy endpoint (subgroup of 1659 patients without baseline troponin elevation, cangrelor vs placebo): 0.62
